Like-named read-outs stand apart in the source and are kept apart here.
Legend:
[1] = test system: neuraminidase; conditions: 100 µg/mL; Mean ± SD (n not given); fluorogenic substrate, 37 °C, 30 min; ex 322 nm, em 450 nm; compound in DMSO
Experimental: 4.8. Neuraminidase Inhibitory Assay
The neuraminidase inhibitory activity was evaluated using a Neuraminidase In-hibitor Screening Kit (Beyotime Institute of Biotechnology, Shanghai, China). Assays were carried out in 96-well plates. For each well, 70 μL of neuraminidase assay buffer, 10 μL of neuraminidase solution, and 10 μL of test compound (dissolved in DMSO; final con-centration 100 μg/mL) were gently mixed. The reaction was initiated by adding 10 μL of the fluorogenic substrate to each well, and the plate was incubated at 37 °C for 30 min. Fluorescence was measured on an EnSpire microplate reader with excitation at 322 nm and emission at 450 nm. The fluorescence intensity of neuraminidase was measured at several concentrations to generate a standard curve relating fluorescence signal to enzyme concentration. The fluorescence corresponding to the highest neuraminidase concentration was set as 0% inhibition. Each sample well initially contained neuraminidase at this concentration, and the residual neuraminidase concentration after the reaction was determined from the measured fluorescence using the standard-curve equation. The inhibition percentages were then calculated.

[2] = test system: two human carcinoma cell lines; conditions: ref [7], cited from earlier work
Source text: Cyclic tetrapeptides are a class of natural products with significant potential in drug discovery, characterized by their unique structural features and diverse biological activities. Their cyclic structure confers stability and contributes to their potency, while their low molecular weight and favorable lipophilicity enhance drug-like properties. […] The presence of hydr ...

Compound	Inhibition Rate (neuraminidase inhibitory activity) [1] [%]	IC50 ([2]; first of two human carcinoma cell lines, read-out: IC50 against human carcinoma cell line (first of two, unnamed)) [µM]	IC50 ([2]; second of two human carcinoma cell lines, read-out: IC50 against human carcinoma cell line (second of two, unnamed)) [µM]
CC12NC(=O)C(C[C@]13C(=O)Nc1ccccc13)n1c2nc2ccccc2c1=O (stereo partly drawn) [Compound 8, alantrypinone]	43.85 ± 1.41		
O=C1N[C@@]2(CO)c3nc4ccccc4c(=O)n3[C@@H]1C[C@@]21C(=O)Nc2ccccc21 [Compound 9, serantrypinone]	51.67 ± 0.42		
CC(C)/C=C1\NC(=O)[C@H](CCC(N)=O)n2c1nc1ccccc1c2=O [Compound 10, aurantiomide C]	67.54 ± 0.87		
Asperterrestide A		6.2	6.4
Penicopeptide B [Compound 1]	52.90 ± 0.37		
Penicopeptide C [Compound 2]	43.16 ± 1.23		
Penicopeptide D [Compound 3]	58.67 ± 3.51		
Penicopeptide E [Compound 4]	74.01 ± 1.32		
Penicopeptide F [Compound 5]	85.40 ± 0.85		
Penicopeptide G [Compound 6]	63.65 ± 0.67		
Penicopeptide H [Compound 7]	57.78 ± 0.44		

Source: article PMC12565300, “Novel Cyclic Tetrapeptides as Neuraminidase Inhibitors from a Sponge-Associated Penicillium sp. SCSIO41035” (Marine Drugs, 2025)
